# Like-named read-outs stand apart in the source and are kept apart here.
# Assays:
# Type in all cases: cell-based
# TEX cells [1] = experiment: Propidium iodide staining and flow cytometry (Example 6); conditions: increasing concentrations up to 10 micromolar
# Experimental: Avocadyne, avocadene and avocatin B were tested for their toxicity to leukemic cells using TEX cells. The TEX cells were treated with increasing concentrations of each lipid (up to 10 micromolar) and subsequently stained with propidium iodide (PI), which stains only dead cells. The percent viability was measured using flow cytometry gating on PI positive and PI negative cells.
# TEX leukemia cells = experiment: MTS cell growth and viability assay, 72 hours
# Experimental: Leukemia (OCI-AML2) cells were cultured in Iscove's Modified Dulbecco's Medium (IMDM) (Life Technologies; Grand Island, N.Y.) supplemented with 10% Fetal Bovine Serum (FBS; Seradigm; Providence, Utah) and antibiotics ([…]; Sigma Chemical; St. Louis, Mo.). TEX leukemia cells were cultured in 15% FBS, antibiotics and 2 mM L-glutamine (Sigma Chemical), 20 ng/ml stem cell factor and 2 ng/ml IL-3 (Peprotech; Hamburg Germany). Primary human samples (fresh and frozen) were obtained from the peripheral blood of AML patients who had at least 80% malignant cells among the mononuclear cells and cultured at 37° C. in IMDM, 20% FBS and antibiotics (see table 1a and 1 b for clinical parameters). […] Cell growth and viability was measured using the 3-(4,5-dimethylthiazol-2-yl)-5-(3-carboxymethoxyphenyl)-2-(4-sulfophenyl)-2H-tetrazolium inner salt (MTS) reduction assay (Promega; Madison, Wis.) according to the manufacturer's protocol and as previously described^7. Cells were seeded in 96-well plates, treated with drug for 72 hours and optical density (OD) was measured at 490 nm. Cell viability was also assessed by the trypan blue exclusion assay and by Annexin V and PI staining (Biovision; Mountainview, Calif.), as previously described^7. […] After 72 hours, cell proliferation and viability were measured by the MTS assay.
# TEX cells [2] = experiment: Reactive oxygen species detection (DCFH-DA, DHE, flow cytometry)
# Excerpt: Reactive oxygen species (ROS) were detected using 2′,7′dichlorohydrofluorescein-diacetate (DCFH-DA; Sigma Chemical) and dihyodroethidium (DHE; Sigma Chemical). DCFH-DA is hydrolyzed by intracellular esterase to produce a non-fluorescent DCFH product. It can then be oxidized by ROS to produce a highly fluorescent DCF product^14. DHE is a superoxide indicator which upon contact with superoxide anions produces the fluorescent product 2-hydroxyethidium^15. Following drug treatment, TEX cells (5×10^5) were collected and washed in PBS (Sigma-Aldrich). Cells were stained with 5 μM (final concentration) DCFH-DA or 10 μM DHE and allowed to incubate for 30 minutes in a humidified atmosphere containing 5% CO2 at 37° C. Samples were then washed in PBS and ROS was measured by flow cytometry using the Guava EasyCyte 8HT (Millipore). Data were analyzed with GuavaSoft 2.5 software (Millipore).
# TEX cells [3] = experiment: Hypoxia experiments, sulforhodamine B assay
# Experimental: (A) Jurkat T cells were cultured in 50 ng/ml of ethidium bromide, […] sodium pyruvate and 50 μg/ml uridine for 60 days to create Jurkat-EtBr cells which lack functional mitochondrial. To confirm that Jurkat-EtBr cells lack mitochondria, the mitochondria specific markers adenine nucleotide translocator (ANT) and complex I (ND1) were measured by Western blotting. (B) Avocatin B's activity was tested in cells with (JURK) and with reduced (JURK-EtBr) mitochondria. Viability was measured by the ANN/PI assay and flow cytometry and data are presented as mean percentage of live cells (i.e., ANN/PI^−)±SD from representative experiments. […] Cell viability was measured by the sulforhodamine B assay, as described in the methods, following a 72 hour incubation period. Data are presented as percent viable. (D) Uncoupling protein 2 (UCP2) was measured in whole cell lysates of avocatin B (10 μM) or DMSO-control treated TEX cells by Western blotting. Arbitrary units (AU) are presented as fold change (compared to the 6 hour time point) and were calculated by dividing each treatment lane by the densitometry of its loading control. Densitometry was calculated as outlined in the methods.
# Cell growth and viability were measured by the sulforhodamine B assay (Sigma Chemical) as previously described^8 following 72 hours of incubation.
# [4] = test system: fatty acid oxidation in TEX cells; experiment: Fatty acid oxidation, oxygen consumption rate (Seahorse XF24); conditions: avocatin B 10 μM, etomoxir 100 μM, palmitate 175 μM
# Experimental: Measurement of oxygen consumption rates were performed using a Seahorse XF24 extracellular flux analyzer (Seahorse Bioscience; North Billerica, Mass.). TEX cells were cultured in α-Minimum Essential Medium (Life Technologies) containing 1% FBS and plated at 1×10^5 cells/well in poly-L-Lysine (Sigma Chemical) coated XF24 plates. Cells were incubated with etomoxir (100 μM; Sigma Chemical) or vehicle control for 30 minutes at 37° C. in a humidified atmosphere containing 5% CO2. Next, palmitate (175 μM; Seahorse Bioscience) or avocatin B (10 μM) was added and immediately transferred to the XF24 analyzer. Oxidation of exogenous fatty acids was determined by measuring mitochondrial respiration through sequential injection of 5 μM (final concentration) oligomycin, an ATP synthase inhibitor, (Millipore, Billerica, Mass.), 5 μM CCCP, a hydrogen ion ionophore, (Sigma Chemical), and 5 μM rotenone (Millipore)/5 μM antimycin A, which inhibit complex III activity, (Sigma Chemical). Fatty acid oxidation was determined by the change in oxygen consumption following oligomycin and CCCP treatment and prior to antimycin and rotenone treatment, according to the manufacturer's protocol and as described in Abe et al. (2013)^13. Data were analyzed with XF software (Seahorse Bioscience).
# TEX cells [5] = experiment: NADPH, NADH and GSH fluorimetric detection; conditions: avocatin B 10 μM, etomoxir 100 μM; also in the presence of palmitate 175 μM
# Experimental: Nicotinamide adenine dinucleotide phosphate (NADPH), nicotinamide adenine dinucleotide (NAD) and glutathione (GSH) were measured by commercially available fluorimetric kits (e.g. Amplite™ Fluorimetric kit (AAT Bioquest; Sunnyvale, Calif.) according to the manufacturers' protocol and as previously described^16, following incubation of increasing duration with avocatin B (10 μM). For NAPDH studies, cells were also incubated with palmitate (175 μM) in the presence or absence of etomoxir. For NADH and GSH studies, cells were incubated in the presence of palmitate and N-acetylcysteine (NAC; 1 mmol/L), respectively. Data are presented as a percent NAD, NADPH or GSH compared to control treated cells±SD.
# TEX cells [6] = experiment: ANN/PI viability of TEX cells with antioxidants or etomoxir; conditions: 100 μM, 72 hours
# Experimental: FIG. 6: Avocatin B inhibits fatty acid oxidation resulting in reduced NADPH and elevated ROS. (A) Illustration of fatty acid oxidation in mitochondria. Long chain fatty acids (LCFA) enter the mitochondria via CPT1 for fatty acid oxidation to yield acetyl-CoA. Acetyl-CoA enters the TCA cycle to generate NADPH, an enzymatic co-factor and antioxidant. (ME: malic enzyme; IDH: isocitrate dehydrogenase; α-KG: α-ketoglutarate). (B) Oxidation of exogenous fatty acids was assessed by measuring the oxygen consumption rate (OCR) in TEX cells treated with palmitate (175 μM), avocatin B (10 μM), avocatin B and palmitate or palmitate and etomoxir (100 μM). […] Effects on fatty acid oxidation were measured with the Seahorse Bioanalyzer, as detailed in the methods section, and (C) quantified by peak area after oligomycin and CCCP treatment, as described by the manufacturer's protocol and detailed in the methods. […] Viability was measured by the ANN/PI assay and data are presented as mean percentage of viable cells (i.e., ANN^−/PI^−)±SD from representative experiments. […] Data, percentage of NADH compared with vehicle control-treated cells±SD; (H) GSH was measured in TEX cells in the presence or absence of NAC using a commercially available fluorimetric assay following treatment with avocatin B ([…]), according to the manufacturers protocol. […]
# [7] = 72 hours, avocatin B 2 μM, antimycin A 1 μM, rotenone 3 μM, daunorubicin 5 nM, cytarabine 4 nM
compound,measurement,setting,value
C=CCCCCCCCCCCCC(O)CC(O)CO (stereo not shown) [avocadene],"amount of cell death (PI positive) in TEX cells, rank among the lipids",TEX cells [1],least amount of cell death
C#CCCCCCCCCCCCC(O)CC(O)COC(C)=O (stereo not shown) [avocadyne acetate],cytotoxicity toward TEX cells,TEX leukemia cells,induce cytotoxicity
same,ROS activity of avocatin analogues,"TEX cells [2]; Example 5, FIG. 12",induce ROS activity
same,ROS activity of avocatin analogues,"TEX cells [2]; Example 5, FIG. 12, listed as Avocadyne Acetate",induce ROS production
C#CCCCCCCCCCCCC(O)CC(O)CO (stereo not shown) [avocadyne],"amount of cell death (PI positive) in TEX cells, rank among the lipids",TEX cells [1],greatest amount of cell death
same,cytotoxicity toward TEX cells,TEX leukemia cells,induce cytotoxicity
same,ROS activity of avocatin analogues,"TEX cells [2]; Example 5, FIG. 12",induce ROS activity
same,ROS activity of avocatin analogues,"TEX cells [2]; Example 5, FIG. 12, listed as Avoadyne",induce ROS production
COc1cccc2c1C(=O)c1c(O)c3c(c(O)c1C2=O)C[C@@](O)(C(C)=O)C[C@@H]3O[C@H]1C[C@H](N)[C@H](O)[C@H](C)O1 [daunorubicin],activity in hypoxic (1% oxygen) versus normoxic (21% oxygen) conditions,TEX cells [3]; [7],unaffected
CCOC(=O)[C@@]1(CCCCCCOc2ccc(Cl)cc2)CO1 [etomoxir],oxidation of exogenous palmitate (oxygen consumption rate),[4],blocked
same,reduction in NADPH,TEX cells [5],~50%
same,effect of etomoxir on TEX viability,TEX cells [6],does not impart toxicity
same,effect of etomoxir on TEX viability,TEX cells [6]; listed as Etomoxir,did not reduce viability
C=C(C)[C@H]1Cc2c(ccc3c2O[C@@H]2COc4cc(OC)c(OC)cc4[C@@H]2C3=O)O1 [rotenone],activity in hypoxic (1% oxygen) versus normoxic (21% oxygen) conditions,TEX cells [3]; [7],reduced
antimycin,activity in hypoxic (1% oxygen) versus normoxic (21% oxygen) conditions,TEX cells [3]; [7],reduced
cytarabine,activity in hypoxic (1% oxygen) versus normoxic (21% oxygen) conditions,TEX cells [3],unaffected

# Reference: patent US20170304251A1, “AVOCADO-DERIVED LIPIDS FOR USE IN TREATING LEUKEMIA” (priority 2014, published 2017)
